The values that follow come from patent US10919896B2, “Preparation and uses of pyrimidinone derivatives” (Cancer Research Technology Limited, priority 2016, dated 2021).

Sequence of Cdc7/ASK (O00311 whole entry): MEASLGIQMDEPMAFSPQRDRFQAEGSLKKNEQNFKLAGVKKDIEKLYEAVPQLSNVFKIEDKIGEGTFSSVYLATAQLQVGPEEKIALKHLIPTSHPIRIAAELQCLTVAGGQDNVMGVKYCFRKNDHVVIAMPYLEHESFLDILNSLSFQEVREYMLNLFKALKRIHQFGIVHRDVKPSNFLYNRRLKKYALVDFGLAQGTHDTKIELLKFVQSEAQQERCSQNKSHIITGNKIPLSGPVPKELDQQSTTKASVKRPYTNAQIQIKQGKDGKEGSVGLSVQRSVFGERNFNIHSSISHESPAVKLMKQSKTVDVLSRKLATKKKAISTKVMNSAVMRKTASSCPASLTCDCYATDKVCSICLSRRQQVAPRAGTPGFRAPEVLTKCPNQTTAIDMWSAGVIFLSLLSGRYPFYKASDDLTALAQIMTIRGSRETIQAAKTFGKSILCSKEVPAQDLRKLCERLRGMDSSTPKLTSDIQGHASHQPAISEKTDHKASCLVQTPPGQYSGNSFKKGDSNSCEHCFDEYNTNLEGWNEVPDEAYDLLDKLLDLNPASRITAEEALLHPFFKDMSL
Sequence of Cdc7/ASK (Q9UBU7 whole entry partner): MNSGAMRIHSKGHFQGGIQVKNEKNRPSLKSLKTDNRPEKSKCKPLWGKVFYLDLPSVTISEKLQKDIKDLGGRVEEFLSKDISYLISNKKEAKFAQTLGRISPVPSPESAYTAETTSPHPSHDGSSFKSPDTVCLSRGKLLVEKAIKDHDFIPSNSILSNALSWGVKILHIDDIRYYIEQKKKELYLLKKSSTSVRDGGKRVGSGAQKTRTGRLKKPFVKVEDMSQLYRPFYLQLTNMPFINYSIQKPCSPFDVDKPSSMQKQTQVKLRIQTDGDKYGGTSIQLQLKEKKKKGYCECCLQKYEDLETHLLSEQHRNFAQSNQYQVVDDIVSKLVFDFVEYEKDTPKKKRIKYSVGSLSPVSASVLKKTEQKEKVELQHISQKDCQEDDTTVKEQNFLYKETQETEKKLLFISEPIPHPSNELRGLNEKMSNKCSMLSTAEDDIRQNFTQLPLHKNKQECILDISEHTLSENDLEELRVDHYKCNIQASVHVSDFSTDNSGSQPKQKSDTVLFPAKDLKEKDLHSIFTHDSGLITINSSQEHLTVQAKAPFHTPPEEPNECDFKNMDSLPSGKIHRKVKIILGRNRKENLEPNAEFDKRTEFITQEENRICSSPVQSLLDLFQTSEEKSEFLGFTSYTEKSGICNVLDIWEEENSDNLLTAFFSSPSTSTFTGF

The test concerns the target Cdc7/ASK (Homo sapiens, UniProt O00311). Put plainly: Cdc7 Biochemical Assay Method 1: 384 well ELISA, whole protein substrate MCM2, antibody against Phospho MCM2 (S53). As to conditions: 2 μM ATP, read-out: Biochemical Method 1 (pIC50) (converted). Further details: purchased. As for the experimental part:
This protocol describes a method for assaying Cdc7/ASK for activity. The assay is a 384 well ELISA assay, utilising a whole protein substrate (MCM2) and an antibody against Phospho MCM2 (S53). This site is thought to be specific to Cdc7/ASK phosphorylation and the assay has been validated using knockout mutants. Reagents • TBS: 25 mM Tris pH 7.2, 150 mM NaCl. (Dilute 10× stock by 1:10). • Wash Buffer: TBS+0.05% Tween 20. (Add 100 mL 1 M Tris pH 7.2, 120 mL 5 M NaCl and 2 mL 100% Tween 20 per 4 L). • Kinase Reaction Buffer: 50 mM Tris-HCl pH 8.5, 10 mM MgCl2, 1 mM DTT. (Dilute 10× stock by 1:10 and add 100 μL 1M DTT per 100 mL prior to assay). • Diethanolamine Buffer: 1 M diethanolamine pH 9.8, 0.5 mM MgCl2. • Stop Solution: 1 M NaOH. • MCM2 was expressed and purified in-house and used in the assay at a final assay concentration of 436 ng/well. • Cdc7/ASK is purchased from commercial suppliers and used in the assay at a final assay concentration of 37.97 ng/well or 20.63 nM. • ATP used as a final assay concentration of 2 μM. • Primary Antibody: Rabbit anti-Phospho MCM2 (S53 Antibody (BL3353)), is purchased from commercial suppliers at 0.2 mg/mL and used at a final assay concentration by diluting 1:800 in TBS. • Secondary Antibody: Anti-Rabbit/AP Antibody is supplied is purchased from commercial suppliers at 1 mg/mL and used at a final assay concentration by diluting 1:2000 in TBS. • Development Reagent: Dissolve one 20 mg PNPP tablet (Sigma, product […], 20 mg per tablet) per 20 mL diethanolamine Buffer (or one 5 mg PNPP tablet per 5 mL diethanolamine buffer). Cover in foil and leave shaking on a roller shaker at room temperature for up to an hour to dissolve. Methods • 1. Add 20 μL 1× working stock of Substrate (MCM2) in TBS to all wells of a clear, 384 well, Nickel-chelate microplate to give a final concentration of […]. Incubate at room temperature for at least 1 hour. Plates can be pre-coated for 1 hour and stored at 4° C. for up to 8 days. • 2. Wash with TBS+0.05% Tween 20 (80 μL×3). • 3. Add 2 μL 10× test compounds, including the positive control, in 40% DMSO/water to 'test' wells. Add 2 μL 40% DMSO/water to 'control' and 'blank' wells. The final DMSO concentration will be 4%. • 4. Add 13 μL CDC7/ASK Kinase (1.5× stock) in Kinase Reaction Buffer to 'test' and 'control' wells to give a final concentration of […]. Add 13 μL Kinase Reaction Buffer to 'blank' wells. • 5. Add 5 μL ATP (4× stock) in Kinase Reaction Buffer to all wells to give a final concentration of 2 μM. • 6. Incubate at room temperature for 90 minutes. • 7. Wash with TBS+0.05% Tween 20 (80 μL×3). • 8. Add 20 μL 1× working solution of Primary Antibody in TBS to all wells. Incubate at room temperature for 30 minutes. • 9. Wash with TBS+0.05% Tween 20 (80 μL×3). • 10. Add 20 μL 1× working solution of Secondary Antibody in TBS to all wells. Incubate at room temperature for 30 minutes. • 11. Wash with TBS+0.05% Tween 20 (80 μL×3). • 12. Add 20 μL 1× Development Reagent to all wells. • 13. Incubate at room temperature for 2 hours. Stop the reaction by adding 20 μL Stop Solution to all wells and record Absorbance on a Pherastar plate reader. Percentage inhibition values were calculated from absorbance values, using the no compound (DMSO) and no enzyme control values as 0% and 100% inhibition, respectively. IC50 determination was performed with ExcelFit software (IDBS) using curve fit 205. Z' factors were determined for each plate tested and were all above 0.5. Method 2
Background: ELISA stands for enzyme-linked immunosorbent assay.
For the compound `O=c1[nH]c(-c2ccncc2)nc(C2CNCCO2)c1Cl` (centres unmarked) [Compound 20], the IC50 is 347 nM. The figure for `CC(=O)Nc1ccc(C(=O)N2CCC(c3nc(-c4ccncc4)[nH]c(=O)c3Cl)CC2)cc1` [Compound 62] is 12 nM; for `C[C@@H](NC(=O)OC(C)(C)C)C(=O)N1CCC(c2nc(-c3ccncc3)[nH]c(=O)c2Cl)CC1` [Compound 64] it is 3.98 nM. The result for `O=C1CN(c2nc(-c3ccncc3)[nH]c(=O)c2Cl)CCCN1` [Compound 141] reads 145 nM; that for `O=c1[nH]c(-c2ccnc(F)c2)nc(C2CCOCC2)c1F` [Compound 17], 2.34 nM. The result for `CC(C)CCN1CCN(c2nc(-c3ccncc3)[nH]c(=O)c2Cl)CC1` [Compound 83] reads 166 nM; that for `CC(C)(C)OC(=O)N1CCN(c2nc(-c3ccncc3)[nH]c(=O)c2Cl)CC1` [Compound 32], 100 nM.

`O=c1[nH]c(-c2ccncc2)nc(C2(F)CCNCC2)c1Cl` [Compound 21]: the IC50 is 1.51 nM. As to `O=C(c1cccc(O)c1)N1CCC(c2nc(-c3ccncc3)[nH]c(=O)c2Cl)CC1` [Compound 50], the IC50 is 3.09 nM. The figure for `CN(C)C1CCN(c2nc(-c3ccncc3)[nH]c(=O)c2Cl)C1` (centres unmarked) [Compound 29] is 1260 nM. The result for `O=C(c1ccnnc1)N1CCC(c2nc(-c3ccncc3)[nH]c(=O)c2Cl)CC1` [Compound 47] reads 1.12 nM; that for `Cc1ncsc1C(=O)N1CCC(c2nc(-c3ccncc3)[nH]c(=O)c2Cl)CC1` [Compound 67], 1.55 nM; that for `C[C@@H]1CN[C@@H](C)CN1c1nc(-c2ccncc2)[nH]c(=O)c1Cl` [Compound 173], 85.1 nM.

As to `Cc1cc(C(=O)N2CCC(c3nc(-c4ccncc4)[nH]c(=O)c3Cl)CC2)nn1C` [Compound 58], the IC50 was 0.912 nM. The result for `CC(C)Oc1ccc(C(=O)N2CCC(c3nc(-c4ccncc4)[nH]c(=O)c3Cl)CC2)cc1` [Compound 63] reads 3.24 nM; that for `CC(C)CC1CN(c2nc(-c3ccncc3)[nH]c(=O)c2Cl)CCO1` (centres unmarked) [Compound 93], 407 nM.

On to `CC(C)(C)N1CCN(c2nc(-c3ccncc3)[nH]c(=O)c2Cl)CC1` [Compound 155], for which the IC50 is 977 nM. The result for `O=C(Cc1c[nH]cn1)N1CCC(c2nc(-c3ccncc3)[nH]c(=O)c2Cl)CC1` [Compound 53] reads 5.75 nM; that for `CCCC(NC(=O)OC(C)(C)C)C(=O)N1CCC(c2nc(-c3ccncc3)[nH]c(=O)c2Cl)CC1` (centres unmarked) [Compound 74], 245 nM. The result for `O=c1[nH]c(-c2ccncc2)nc(C2CCCOC2)c1Cl` (centres unmarked) [Compound 16] reads 12.9 nM. The result for `O=c1[nH]c(-c2ccncc2)nc(C2CCOCC2)c1Cl` [Compound 6] reads 1.45 nM. On to `O=c1[nH]c(-c2ccncc2)nc(C2CCOC2)c1Cl` (centres unmarked) [Compound 12], for which the IC50 is 20 nM.

Take `O=c1[nH]c(-c2ccnc(C(F)(F)F)c2)nc(C2CCOCC2)c1Cl` [Compound 24]: the IC50 was 1020 nM.

With `NC(=O)[C@H]1CCCN1c1nc(-c2ccncc2)[nH]c(=O)c1Cl` [Compound 118], the IC50 was 380 nM.

`COc1cccc(N2CCN(c3nc(-c4ccncc4)[nH]c(=O)c3Cl)CC2)c1` [Compound 113]: the IC50 is 28.8 nM. The result for `CC(C)(C)OC(=O)N1CCC(c2nc(-c3ccncc3)[nH]c(=O)c2Cl)CC1` [Compound 1, tert-Butyl 4-[5-chloro-6-oxo-2-(4-pyridyl)-1H-pyrimidin-4-yl]piperidine-1-carboxylate] reads 70.8 nM; that for `O=C(c1cscn1)N1CCC(c2nc(-c3ccncc3)[nH]c(=O)c2Cl)CC1` [Compound 57], 3.47 nM; that for `O=c1[nH]c(-c2ccncc2)nc(C2CCNCC2)c1Cl` [Compound 2, 5-Chloro-6-piperidin-4-yl-2-pyridin-4-yl-3H-pyrimidin-4-one], 1.74 nM.

Turning to `O=c1[nH]c(-c2ccncc2)nc(N2CCN[C@H](CCO)C2)c1Cl` [Compound 174], the IC50 is 30.9 nM. The result for `CC(C)(C)OC(=O)NCC(=O)N1CCC(c2nc(-c3ccncc3)[nH]c(=O)c2Cl)CC1` [Compound 35, tert-butyl-N-[2-[4-[5-chloro-6-oxo-2-(4-pyridyl)-1H-pyrimidin-4-yl]-1-piperidyl]-2-oxo-ethyl]carbamate] reads 22.9 nM; that for `COc1cccc(C2CN(c3nc(-c4ccncc4)[nH]c(=O)c3Cl)CCN2)c1` (centres unmarked) [Compound 179], 23.4 nM; that for `O=C(c1ccccc1)N1CCC(c2nc(-c3ccncc3)[nH]c(=O)c2Cl)CC1` [Compound 41], 6.92 nM.

`O=C1CN(c2nc(-c3ccncc3)[nH]c(=O)c2Cl)CCN1` [Compound 33]: the IC50 is 12.9 nM. As to `C[C@H]1CN(c2nc(-c3ccncc3)[nH]c(=O)c2Cl)[C@@H](C)CN1` [Compound 172], the IC50 was 12.6 nM. The figure for `CC(C)(C)OC(=O)N1CCC(F)(c2nc(-c3ccncc3)[nH]c(=O)c2Cl)CC1` [Compound 22] is 74.1 nM; for `CC1(c2nc(-c3ccncc3)[nH]c(=O)c2Cl)CCOCC1` [Compound 9] it is 3.39 nM; for `O=C(c1cn[nH]c1)N1CCC(c2nc(-c3ccncc3)[nH]c(=O)c2Cl)CC1` [Compound 68] it is 2.69 nM. For `Cn1cnc(C(=O)N2CCC(c3nc(-c4ccncc4)[nH]c(=O)c3Cl)CC2)c1` [Compound 55], the IC50 was 2.09 nM. In the case of `NC(=O)C1CCN(c2nc(-c3ccncc3)[nH]c(=O)c2Cl)CC1` [Compound 100], the IC50 was 12 nM. The figure for `CN(c1ccc(C(=O)N2CCC(c3nc(-c4ccncc4)[nH]c(=O)c3Cl)CC2)cc1)S(C)(=O)=O` [Compound 65] is 5.89 nM; for `O=c1[nH]c(-c2ccncc2)nc(C2=CCOCC2)c1Cl` [Compound 404, 5-chloro-4-(3,6-dihydro-2H-pyran-4-yl)-2-(4-pyridyl)-1H-pyrimidin-6-one] it is 166 nM; for `N#Cc1cccc(C(=O)N2CCC(c3nc(-c4ccncc4)[nH]c(=O)c3Cl)CC2)c1` [Compound 48] it is 2.57 nM.

As for `O=C(c1ccccc1Cl)N1CCC(c2nc(-c3ccncc3)[nH]c(=O)c2Cl)CC1` [Compound 66], the IC50 is 14.8 nM. The figure for `CCCC1COCCN1c1nc(-c2ccncc2)[nH]c(=O)c1Cl` (centres unmarked) [Compound 95] is 67.6 nM; for `NC(=O)C1CN(c2nc(-c3ccncc3)[nH]c(=O)c2Cl)CCO1` (centres unmarked) [Compound 96] it is 42.7 nM; for `O=C(C1CC1(F)F)N1CCC(c2nc(-c3ccncc3)[nH]c(=O)c2Cl)CC1` (centres unmarked) [Compound 70] it is 15.8 nM.

As to `O=c1[nH]c(-c2ccncc2)nc(C2CCNC2)c1Cl` (centres unmarked) [Compound 11], the IC50 was 5.25 nM. The result for `COc1ccc(S(N)(=O)=O)cc1C(=O)N1CCC(c2nc(-c3ccncc3)[nH]c(=O)c2Cl)CC1` [Compound 61] reads 6.17 nM; that for `Cc1cc(C(=O)N2CCC(c3nc(-c4ccncc4)[nH]c(=O)c3Cl)CC2)[nH]n1` [Compound 52], 2.63 nM. The result for `CC(C)(C)OC(=O)N1CC=C(c2nc(-c3ccncc3)[nH]c(=O)c2Cl)CC1` [Compound 405, tert-butyl 4-[5-chloro-6-oxo-2-(4-pyridyl)-1H-pyrimidin-4-yl]-3,6-dihydro-2H-pyridine-1-carboxylate] reads 562 nM.
